Values of other authors, collected in publication PMC3945118 (Journal of molecular neuroscience : MN, 2013).

Test system: rotarod performance
Details: test not specified; no reference given

SMILES: CCCC(CCC)C(=O)O [valproic acid]
- Therapeutic Index (TI) of known anticonvulsant: ~1
